Legend:
Assay type in all cases: cell-based
[1] = tested on: human skin fibroblast; experiment: iPS cell colony induction with three genes OCT4, SOX2 and KLF4, Retronectin or polybrene (Example 11); details: OCT4, SOX2 and KLF4 only, 28th day of culture, N=2
Experimental: By limiting a gene to be introduced to three kinds of OCT4, SOX2 and KLF4, the same experiment as that of Example 10 was carried out.
According to the same manner as that of Example 10-(2), gene transfer was carried out, provided that, as the retrovirus vector, retrovirus vectors DON5-am-OCT4-IR-SOX2 and DON5-am-KLF4 prepared in Preparation Example 2 were used.
According to the same manner as that of Example 10-(4), the gene-introduced cell was seeded on a feeder cell, and culturing was continued.
Culturing was carried out according to the same manner as that of Example 10-(5).
(§1) In addition, the number in the Table indicates an average value of N=2.

[2] = tested on: human adult skin fibroblasts; experiment: iPS cell colony induction, differences between donors, Retronectin or polybrene (Example 13); details: virus 10-fold dilution, 25th day of culture, N=2
Experimental: Regarding gene transfer with a retrovirus vector, a pluripotent stem cell was induced using Retronectin or polybrene, targeting four kinds of human adult skin fibroblasts as in Example 12, followed by comparison.
According to the same manner as that of Example 1-(1), immobilization of Retronectin on a culture plate was carried out, provided that a non-treatment 12-well culture plate (manufactured by Becton, Dickinson and Company) was used, and each 1 mL of a Retronectin solution was added to each well.
According to the same manner as that of Example 7-(2), gene transfer was carried out (day 0 of culturing), provided that a 12-well plate for culturing a cell (manufactured by Corning) was used in gene transfer with polybrene. A virus solution was added to each well by each 1 mL by diluting 10-fold a solution obtained by mixing equal amounts of three kinds of vectors, with 10F-DMEM.
On the sixth day of culture, according to the same manner as that of Example 5-(4), the gene-introduced cell was seeded on a feeder cell, and culturing was continued.
According to the same manner as that of Example 10-(5), culturing on the feeder cell was carried out until the 25th day of culture.
as §1

[3] = tested on: human skin fibroblast; experiment: Gene transfer efficiency with two retrovirus vectors, AcGFP1/mStrawberry double positive cells by flow cytometer (Example 8); details: 3 days after gene transfer
Experimental: According to the same manner as that of Example 1-(1), immobilization of Retronectin on a culture plate was carried out, provided that a non-treatment 24-well culture plate (manufactured by Becton, Dickinson and Company) was used, and a Retronectin solution was added to each well by each 500 μL.
Gene transfer with Retronectin was carried out according to the same manner as that of Example 3-(2), provided that a retrovirus vector was a combination of DON-am-AcGFP1 and DONAI2-am-mStrawberry, and gene transfer was carried out by mixing each 250 μL of virus solutions. Further, a group of mixing 250 μL of a virus solution diluted 50-fold with 10F-DMEM was also set. In addition, a cell was suspended in a medium to 4×10^4 cells/mL, and each 500 μL was added to each well.
Gene transfer with polybrene was carried out in the same combination as that of retrovirus vectors according to the same manner as that of gene transfer with polybrene of Example 7-(2), provided that the cell was suspended in a medium to 4×10^4 cells/mL, and each 500 μL was added to each well of a 24-well culture plate (manufactured by Corning). […]
After 3 days from gene transfer operation, the cells were recovered, and AcGFP1 positive and mStrawberry positive cells were measured with a flow cytometer (CytomicsFC500, manufactured by Beckmann Coulter Inc.).

[4] = tested on: human skin fibroblast; experiment: Gene transfer efficiency with two retrovirus vectors, double positive cells (Example 9); details: 5 days after gene transfer
Experimental: According to the same manner as that of Example 8-(1), immobilization of Retronectin on a culture plate was carried out.
According to the same manner as that of Example 8-(2), gene transfer was carried out, provided that a group in which a virus solution is diluted 10-fold or 100-fold with 10F-DMEM was set.
According to the same manner as that of Example 8-(3), a gene transfer efficiency was measured, provided that measurement with a flow cytometer was carried out 5 days after gene transfer operation.

Q: Which results are given for “Retronectin: fragment of fibronectin having a heparin-II binding region (registered trademark, CH-296, TAKARA BIO INC.)”?
A: Number of iPS cell colonies ([1]; virus 10-fold dilution): 28.0; Number of iPS cell colonies ([1]; virus 100-fold dilution): 32.0; Number of iPS cell colonies ([1]; virus solution undiluted): 13.0; Number of iPS cell colonies ([2]; Cell A): 81.0; Number of iPS cell colonies ([2]; Cell B): 6.5; Number of iPS cell colonies ([2]; Cell C): 114.0; Number of iPS cell colonies ([2]; Cell D): 44.5; Ratio of double positive cells ([3]; virus 50-fold dilution): 66.5%; Ratio of double positive cells ([3]; virus solution undiluted): 40.7%; Ratio of both positive cells ([4]; virus 10-fold dilution): 55.4; Ratio of both positive cells ([4]; virus 100-fold dilution): 67.6; Ratio of both positive cells ([4]; virus solution undiluted): 33.9

Reference: US9238797B2, “Method for production of pluripotent stem cell” (TAKARA BIO INC., priority 2008, dated 2016)
